ChEMBL document CHEMBL1136579, “Determination of active components in rhubarb and study of their hydrophobicity by micellar electrokinetic chromatography” (Bioorg Med Chem Lett, 2003)

Assay: Partition coefficient of compound in octanol and water by Fragmental method of Leo/Hansch
Format: physicochemical

SMILES | logP
O=C1c2cccc(O)c2C(=O)c2c(O)cc(CO)cc21 [ALOE-EMODIN] | 2.62
Cc1cc(O)c2c(c1)C(=O)c1cccc(O)c1C2=O [CHRYSOPHANOL] | 3.39
Cc1cc(O)c2c(c1)C(=O)c1cc(O)cc(O)c1C2=O [EMODIN] | 2.87
COc1cc(O)c2c(c1)C(=O)c1cc(C)cc(O)c1C2=O [PHYSCION] | 3.65
O=C(O)c1cc(O)c2c(c1)C(=O)c1cccc(O)c1C2=O [RHEIN] | 2.37
